Test [1] concerns the target T1, Polyadenylate-binding protein 1 (Homo sapiens, UniProt P11940). The experiment in a line: PABP inhibition in translation initiation, SAR follow-up (AID 435018). It counts as functional.
Test [2] addresses T1, Polyadenylate-binding protein 1. In words: PABP poly(A) RNA binding inhibitors, primary screen, biochemical, fluorescence polarization, uHTS (AID 2014). A general note: Polarisation of emitted light reports the rotation of a fluorescent probe.
For test [3], the target named is T2, Eukaryotic translation initiation factor 4H (Homo sapiens, UniProt Q15056). In words: eIF4H inhibition in translation initiation, SAR follow-up (AID 435011). The class given is functional.
In test [4] the target is T2, Eukaryotic translation initiation factor 4H. The experiment in a line: human eIF4H binding inhibitors, primary screen, translation initiation inhibitor project, biochemical, uHTS, fluorescence polarization (AID 2012).
The target of test [5] is G-protein coupled receptor 35 (Homo sapiens, UniProt Q9HC97). The experiment in a line: GPR35 antagonists blocking zaprinast-driven arrestin recruitment, primary screen, imaging, U2OS, beta-arrestin-GFP, zaprinast agonist (AID 2058).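 Also: antagonist potency meaning inhibition of agonist-induced arrestin redistribution.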 It counts as functional. On the technique in general: Activated receptors often draw arrestin, which recruitment assays turn into a signal.

Test [6] concerns the target Acyl-homoserine lactone acylase PvdQ (Pseudomonas aeruginosa (strain LESB58), UniProt Q9I194). In words: P. aeruginosa PvdQ acylase inhibitors, dose response, biochemical, fluorescence, plate reader and imaging, cherry-picks (AID 493231).
Another test has as its target Trypsin (Sus scrofa, UniProt P00761). In words: porcine trypsin inhibitors, dose response, selectivity assay for Rce1 protease inhibitor project, biochemical, quenched peptide fluorescence, cherry-pick (AID 488789).
Test [7] deals with T3, Neuropeptides B/W receptor type 1 (Homo sapiens, UniProt P48145).
T3 sequence (P48145 whole entry): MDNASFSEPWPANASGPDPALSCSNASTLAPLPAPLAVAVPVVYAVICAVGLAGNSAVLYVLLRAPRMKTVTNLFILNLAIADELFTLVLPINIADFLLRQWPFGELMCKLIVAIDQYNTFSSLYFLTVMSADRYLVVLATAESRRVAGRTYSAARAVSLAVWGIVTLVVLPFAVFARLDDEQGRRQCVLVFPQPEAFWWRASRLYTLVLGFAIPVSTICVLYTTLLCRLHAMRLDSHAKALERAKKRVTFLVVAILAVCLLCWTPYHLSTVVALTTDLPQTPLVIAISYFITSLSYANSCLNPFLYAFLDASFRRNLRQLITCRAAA
In words: GPR7 antagonist potency, late-stage follow-up, cell-based, fluorescence, dose response (AID 463251). It counts as functional.

The target in test [8] is Melanin-concentrating hormone receptor 1 (Homo sapiens, UniProt Q99705). The experiment in a line: Late-stage fluorescence-based counterscreen for antagonists of the G-protein coupled receptor 7 (GPR7): cell-based dose response assay to identify antagonists of the melanin-concentrating hormone receptor 1 (MCHR1). [Related pubchem assays (depositor defined):AID1861, AID1880, AID1952, AID2148, AID2251, AID2257, AID485339]. It counts as functional.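 Also: stimulated with 30 nM MCH peptide agonist.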

The nature of test [9]: nmpC-GFP reporter inhibition in S. Typhimurium, dose response, counter-screen for PhoP regulon inhibitor project, purified and synthesized compounds, set 2 (AID 2834). It counts as functional. (In general: Counterscreens check selectivity or assay interference.)
The target of test [10] is Cyclin-dependent kinase 5/CDK5 activator 1 (Homo sapiens, UniProt Q00535). The experiment in a line: CDK5/p35 kinase inhibitors, dose response, biochemical, cherry-picked samples, set 2 (AID 504545).
Test [11] in a line: cytotoxicity in HEK-293T NF-kB-Luc cells, dose response, cytotoxicity control for B/T-cell NF-kB inhibitor project, cell-based, uHTS hits (AID 489019).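 Also: IC50 reflects cytotoxicity as loss of cell viability.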 It counts as functional.
Test [12] has as its system Vero. In words: cells. It counts as functional. The note with it: Chlorocebus sabaeus.
Test [13] in a line: control 3'UTR Renilla luciferase suppression, dose response, counter-screen for Shn3 inhibitor project, cell-based, Clone20-Shn3RL, cherry-picked (AID 624133). It counts as functional.
The nature of test [14]: cytotoxicity toward DRD oncogenic fibroblasts, dose response, cell-based, non-viral oncogenic, luminescence (AID 1934). The class given is functional. The note with it: Homo sapiens.
A short description of test [15]: NIH-3T3 fibroblast cytotoxicity, dose response, cytotoxicity control, cell-based, fluorescence, Alamar Blue, secondary assay (AID 2327).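 Also: NIH-3T3 mouse fibroblasts cultured with fluconazole at 8 µg/mL.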 The class given is functional.
Test [16] can be described thus: HepG2 cell cytotoxicity, dose response, cytotoxicity control for Shn3 inhibitor project, CellTiter-Glo, cherry-picked (AID 624134). It counts as functional, cell-based.
For test [17], the target named is NACHT, LRR and PYD domains-containing protein 3 (Homo sapiens, UniProt Q96P20). The experiment in a line: NALP3 inhibitors in yeast, dose response, luminescent (AID 488799). It counts as functional.
Test [18] has as its system BJ. The experiment in a line: cytotoxicity toward BJ-TERT-LT-ST fibroblasts, dose response, cell-based, RAS-independent, luminescence (AID 1935).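 Also: BJ fibroblasts immortalized with TERT plus LT and ST oncogenes.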 It counts as functional. The note with it: Homo sapiens.
In another test the test system is Jurkat. In words: antigen receptor-induced NF-kB inhibitors, dose response, Jurkat, luciferase reporter, luminescence, B- and T-cell (AID 489004).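 Also: NF-kB luciferase reporter Jurkat cells stimulated with PMA plus ionomycin.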 It counts as functional, cell-based. The note with it: Homo sapiens.
For test [19], the system named is BJ. The experiment in a line: cells. The class given is functional, cell-based. The note with it: Homo sapiens.
Test [20] is described as follows: C. albicans growth with fluconazole, confirmation, fluorescence, retest (AID 2467). The class given is functional, cell-based.
Test [21] concerns the target T4, Serine/threonine-protein phosphatase (Candida dubliniensis (strain CD36 / CBS 7987 / NCPF 3949 / NRRLY-17841) (Yeast), UniProt B9W6M3).
T4 sequence (B9W6M3 whole entry): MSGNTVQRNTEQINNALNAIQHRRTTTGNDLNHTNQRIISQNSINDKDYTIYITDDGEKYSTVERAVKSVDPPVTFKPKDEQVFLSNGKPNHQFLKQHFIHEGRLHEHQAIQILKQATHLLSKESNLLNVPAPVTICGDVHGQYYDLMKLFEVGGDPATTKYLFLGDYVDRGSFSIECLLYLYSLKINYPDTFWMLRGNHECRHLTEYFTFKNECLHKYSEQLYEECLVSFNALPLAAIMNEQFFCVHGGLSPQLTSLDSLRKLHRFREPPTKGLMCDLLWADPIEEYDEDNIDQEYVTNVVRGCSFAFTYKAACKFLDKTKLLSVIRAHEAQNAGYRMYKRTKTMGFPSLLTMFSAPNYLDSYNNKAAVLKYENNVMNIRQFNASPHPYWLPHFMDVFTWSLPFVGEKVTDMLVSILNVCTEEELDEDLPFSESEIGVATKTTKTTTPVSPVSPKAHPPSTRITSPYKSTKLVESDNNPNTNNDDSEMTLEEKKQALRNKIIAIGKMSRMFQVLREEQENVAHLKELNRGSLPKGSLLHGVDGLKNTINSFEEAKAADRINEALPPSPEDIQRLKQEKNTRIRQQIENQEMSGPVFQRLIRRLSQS
The experiment in a line: calcineurin pathway inhibitors in yeast reporter, dose response, S. cerevisiae, CDRE-lacZ, luminescence, secondary (AID 2388).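 Also: yeast reporter cells carrying a calcineurin-responsive lacZ construct stimulated with calcium chloride; luminescent beta-galactosidase reporter signal in whole cells rather than isolated phosphatase activity; potency for inhibition where a drop in reporter signal means calcineurin blockade.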 It counts as functional, cell-based.

A short description of test [22]: Shn3 3'UTR reporter inhibitors, dose response, cell-based, Clone20 osteoblasts, firefly luciferase, cherry-picked (AID 624132).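 Also: firefly luciferase luminescence from reporter carrying the Shn3 3'UTR in osteoblasts.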 It counts as functional.
Test [23] deals with Vero. In words: host cell cytotoxicity of antiviral hits, dose response, cytotoxicity control for West Nile virus antiviral project, secondary assay (AID 1650). It counts as functional. The note with it: Chlorocebus sabaeus.
Test [24] concerns BJ. In words: cytotoxicity toward BJ-TERT fibroblasts, dose response, cell-based, RAS-independent, luminescence (AID 1933). It counts as functional. The note with it: Homo sapiens.
The subject of a further test is H4. In words: Luminescence Cell-Based Dose Response HTS to Identify Activators of 5'UTR Stem-Loop Driven Prion Protein mRNA Translation in H4 Neuroglioblastoma Cells. [Related pubchem assays: 1829 (Project Summary), 1814 (Primary HTS)]. It counts as functional. The note with it: Homo sapiens.

The source made the active and inactive calls. A value given as a limit tells only on which side of the number the result lay.

T1 sequence (P11940 whole entry): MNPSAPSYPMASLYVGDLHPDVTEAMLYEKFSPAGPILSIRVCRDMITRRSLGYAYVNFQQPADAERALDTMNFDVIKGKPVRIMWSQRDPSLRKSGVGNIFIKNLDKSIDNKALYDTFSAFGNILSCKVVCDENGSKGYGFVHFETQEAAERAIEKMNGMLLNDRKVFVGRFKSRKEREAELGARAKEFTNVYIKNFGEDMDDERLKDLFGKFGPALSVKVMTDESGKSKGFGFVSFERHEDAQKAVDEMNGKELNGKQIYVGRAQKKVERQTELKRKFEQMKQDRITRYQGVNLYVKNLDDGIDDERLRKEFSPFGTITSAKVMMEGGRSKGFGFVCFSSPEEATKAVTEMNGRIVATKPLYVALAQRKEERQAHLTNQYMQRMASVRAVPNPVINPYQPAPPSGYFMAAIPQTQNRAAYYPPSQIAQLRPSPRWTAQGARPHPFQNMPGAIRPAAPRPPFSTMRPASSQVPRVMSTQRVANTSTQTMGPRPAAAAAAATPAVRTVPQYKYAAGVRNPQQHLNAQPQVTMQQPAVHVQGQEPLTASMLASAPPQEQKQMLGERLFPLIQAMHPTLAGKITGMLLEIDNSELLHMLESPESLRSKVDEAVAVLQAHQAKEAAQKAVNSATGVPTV
Acyl-homoserine lactone acylase PvdQ, sequence (Q9I194 24-193 limits assumed): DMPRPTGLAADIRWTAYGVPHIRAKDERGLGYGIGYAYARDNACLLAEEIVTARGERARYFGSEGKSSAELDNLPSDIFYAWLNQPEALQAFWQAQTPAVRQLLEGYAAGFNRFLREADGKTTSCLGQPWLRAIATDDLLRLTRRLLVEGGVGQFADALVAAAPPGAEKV
Acyl-homoserine lactone acylase PvdQ, sequence (Q9I194 217-762 limits assumed): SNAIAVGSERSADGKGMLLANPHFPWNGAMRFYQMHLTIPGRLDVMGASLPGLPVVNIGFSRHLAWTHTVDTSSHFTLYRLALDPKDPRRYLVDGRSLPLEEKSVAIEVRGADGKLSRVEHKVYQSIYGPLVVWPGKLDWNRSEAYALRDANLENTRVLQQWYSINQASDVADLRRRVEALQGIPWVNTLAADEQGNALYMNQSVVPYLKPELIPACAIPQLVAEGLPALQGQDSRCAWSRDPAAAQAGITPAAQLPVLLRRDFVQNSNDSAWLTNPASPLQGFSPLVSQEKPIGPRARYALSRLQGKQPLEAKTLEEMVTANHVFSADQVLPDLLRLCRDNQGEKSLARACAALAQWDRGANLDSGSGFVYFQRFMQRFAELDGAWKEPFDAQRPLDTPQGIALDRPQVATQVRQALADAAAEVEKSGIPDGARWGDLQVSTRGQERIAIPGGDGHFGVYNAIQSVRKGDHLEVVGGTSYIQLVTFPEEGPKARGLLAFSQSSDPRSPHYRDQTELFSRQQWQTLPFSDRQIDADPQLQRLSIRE
G-protein coupled receptor 35, sequence (Q9HC97 whole entry): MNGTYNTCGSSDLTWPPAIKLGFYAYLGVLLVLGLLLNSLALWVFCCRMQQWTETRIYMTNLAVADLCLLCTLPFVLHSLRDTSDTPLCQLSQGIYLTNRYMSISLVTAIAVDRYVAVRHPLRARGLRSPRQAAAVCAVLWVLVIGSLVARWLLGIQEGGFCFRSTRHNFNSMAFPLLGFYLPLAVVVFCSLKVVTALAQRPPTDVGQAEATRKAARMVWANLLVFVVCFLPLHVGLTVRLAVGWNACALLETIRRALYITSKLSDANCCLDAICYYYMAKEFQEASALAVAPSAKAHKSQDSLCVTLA
Trypsin, sequence (P00761 whole entry): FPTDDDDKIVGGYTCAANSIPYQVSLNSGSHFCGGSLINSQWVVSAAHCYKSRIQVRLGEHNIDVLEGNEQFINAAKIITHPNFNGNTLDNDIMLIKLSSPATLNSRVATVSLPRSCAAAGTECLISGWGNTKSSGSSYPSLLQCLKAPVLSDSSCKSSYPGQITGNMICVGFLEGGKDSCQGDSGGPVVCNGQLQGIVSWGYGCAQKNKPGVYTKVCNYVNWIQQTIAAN
NACHT, LRR and PYD domains-containing protein 3, sequence (Q96P20 whole entry, the tested form may be a part): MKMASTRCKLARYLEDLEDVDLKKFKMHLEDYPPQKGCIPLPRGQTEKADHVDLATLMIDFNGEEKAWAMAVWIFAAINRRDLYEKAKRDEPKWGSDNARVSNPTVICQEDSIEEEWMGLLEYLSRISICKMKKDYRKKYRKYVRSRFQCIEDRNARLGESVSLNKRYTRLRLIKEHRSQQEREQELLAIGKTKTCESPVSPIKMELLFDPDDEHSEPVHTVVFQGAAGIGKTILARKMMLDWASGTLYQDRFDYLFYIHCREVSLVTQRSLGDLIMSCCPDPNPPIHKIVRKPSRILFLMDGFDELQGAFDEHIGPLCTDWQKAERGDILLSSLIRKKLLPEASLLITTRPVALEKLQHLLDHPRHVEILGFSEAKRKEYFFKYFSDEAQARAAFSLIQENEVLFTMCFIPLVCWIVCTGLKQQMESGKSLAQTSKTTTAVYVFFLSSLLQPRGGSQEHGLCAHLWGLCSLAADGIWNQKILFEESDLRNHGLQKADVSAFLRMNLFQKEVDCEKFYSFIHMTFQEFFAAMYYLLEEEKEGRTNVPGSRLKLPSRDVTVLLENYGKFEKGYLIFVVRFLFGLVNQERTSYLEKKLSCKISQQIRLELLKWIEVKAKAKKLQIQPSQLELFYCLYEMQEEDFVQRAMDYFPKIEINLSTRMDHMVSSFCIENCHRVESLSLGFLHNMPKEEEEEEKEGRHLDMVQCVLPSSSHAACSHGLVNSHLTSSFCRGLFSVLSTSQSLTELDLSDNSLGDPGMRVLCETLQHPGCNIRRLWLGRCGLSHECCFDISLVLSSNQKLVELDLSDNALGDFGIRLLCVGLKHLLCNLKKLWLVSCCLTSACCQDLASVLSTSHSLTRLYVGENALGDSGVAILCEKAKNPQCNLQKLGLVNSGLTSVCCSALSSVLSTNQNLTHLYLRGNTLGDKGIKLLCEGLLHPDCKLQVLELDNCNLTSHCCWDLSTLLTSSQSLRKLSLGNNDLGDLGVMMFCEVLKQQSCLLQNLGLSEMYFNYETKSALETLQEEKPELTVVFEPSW
Cyclin-dependent kinase 5/CDK5 activator 1, sequence (Q00535 whole entry): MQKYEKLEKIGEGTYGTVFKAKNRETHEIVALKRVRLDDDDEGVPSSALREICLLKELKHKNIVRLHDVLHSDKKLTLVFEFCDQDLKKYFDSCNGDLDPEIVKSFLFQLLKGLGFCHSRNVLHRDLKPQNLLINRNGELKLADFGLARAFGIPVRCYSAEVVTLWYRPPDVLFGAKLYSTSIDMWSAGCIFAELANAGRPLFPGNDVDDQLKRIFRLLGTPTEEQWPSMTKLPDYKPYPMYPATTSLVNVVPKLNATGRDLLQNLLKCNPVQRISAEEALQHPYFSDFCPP
Cyclin-dependent kinase 5/CDK5 activator 1, sequence (Q15078 whole entry, further chain): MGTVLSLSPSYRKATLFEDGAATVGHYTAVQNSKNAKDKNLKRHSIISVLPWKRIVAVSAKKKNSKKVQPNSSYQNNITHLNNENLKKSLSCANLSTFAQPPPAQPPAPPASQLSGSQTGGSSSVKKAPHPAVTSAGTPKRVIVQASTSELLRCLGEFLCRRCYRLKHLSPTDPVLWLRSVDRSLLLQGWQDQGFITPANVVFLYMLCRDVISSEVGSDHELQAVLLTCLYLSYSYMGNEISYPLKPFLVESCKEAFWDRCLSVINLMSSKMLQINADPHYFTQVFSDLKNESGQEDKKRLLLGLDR
Melanin-concentrating hormone receptor 1, sequence (Q99705 whole entry): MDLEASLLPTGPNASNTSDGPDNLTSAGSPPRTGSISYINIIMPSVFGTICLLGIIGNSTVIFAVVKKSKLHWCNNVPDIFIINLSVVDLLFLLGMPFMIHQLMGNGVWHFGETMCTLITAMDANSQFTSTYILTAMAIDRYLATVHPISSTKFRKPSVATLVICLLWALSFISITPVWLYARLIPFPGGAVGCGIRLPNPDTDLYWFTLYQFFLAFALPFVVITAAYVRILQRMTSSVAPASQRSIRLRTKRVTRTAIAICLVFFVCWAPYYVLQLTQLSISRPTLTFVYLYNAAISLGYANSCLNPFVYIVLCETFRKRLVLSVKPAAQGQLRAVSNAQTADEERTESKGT

As to `CCn1c(=O)n(CC)c2cc(NC(=O)C(C)c3ccccc3)c(Br)cc21` (configuration not stated), the IC50 – broadly, the midpoint of a concentration-inhibition curve – in test [1] was 9.4 µM (active); in test [2] it was 21.5 µM (active); in [3], > 100 µM (inactive); in test [4] it was > 100 µM (inactive).

With `CN1CC=C2C(C#N)=C(N)C(C#N)(C#N)C(c3ccsc3)C2C1` (configuration not stated), the IC50 in test [5] is 0.991 µM (active).

In the case of `O=C1N[C@@H](Cc2ccccc2)[C@@H](c2ccco2)O1`, the AC50 (in general, the concentration at which the activity in the assay is half-maximal) in [6] was 7.07 µM (active).

For the molecule `Cc1ccc(C(=O)N2N=C(c3ccccc3O)CC2c2ccccc2)cc1` (configuration not stated), the half-maximal activity concentration (AC50) at Trypsin is 67.6 µM (active).

For the molecule `COc1ccc(Oc2c(Cl)cnn(-c3ccc(I)cc3)c2=O)cc1`, the IC50 was 1 µM (active) in test [7] and 4.7 µM (active) in [8].

In the case of `O=C1C2=C(Nc3ccccc3SC2c2ccc(I)cc2)c2ccccc21` (configuration not stated), in test [9], the IC50 was 232 µM (active).

Take `CC(C)n1cnc2c(Nc3ccc(F)c(Cl)c3)nc(NCCO)nc21`: the AC50 in test [10] was 3.36 µM (active).

Consider `C[C@@H]1C[C@@H]2O[C@H]2/C=C\C=C\C(=O)Cc2c(Cl)c(O)cc(O)c2C(=O)O1`, for which the IC50 in test [11] was > 80 µM (inactive); in test [17], 8.41 µM (active); in the test on Jurkat it was 0.21 µM (active). The CC50 (in general, the concentration at which the toxic effect on the cells reaches its halfway point) was 15.8 µM (active) in the test on Vero [12] and 3.11 µM (active) with Vero [23]. Further, the AC50 in [13] was 12.3 µM (active); in test [16], 49.8 µM (active); in test [22], 6.4 µM (active). Also, the EC50 (in general, the concentration at which the effect is half-maximal) in test [14] was 2.08 µM (active); in [15] it was 44.5 µM (inconclusive); in the test on BJ [18] it was 1.81 µM (active); with BJ [19] it was 0.309 µM (active); in [20], 0.049 µM (active); in test [21], > 180 µM (inactive). The values for the EC50 in the test on BJ [24] and with H4 were 21 µM (active) and > 120 µM (not active), respectively.

Source of the values: ChEMBL document CHEMBL1201862, “PubChem BioAssay data set” (2004).
